Experiments:
Polyphenol oxidase 2 [1] = target: T1, Polyphenol oxidase 2 (Agaricus bisporus, UniProt O42713); test: Catecholase Activity Assay; conditions: pH 6.8; 20 °C
T1 sequence (O42713 whole entry): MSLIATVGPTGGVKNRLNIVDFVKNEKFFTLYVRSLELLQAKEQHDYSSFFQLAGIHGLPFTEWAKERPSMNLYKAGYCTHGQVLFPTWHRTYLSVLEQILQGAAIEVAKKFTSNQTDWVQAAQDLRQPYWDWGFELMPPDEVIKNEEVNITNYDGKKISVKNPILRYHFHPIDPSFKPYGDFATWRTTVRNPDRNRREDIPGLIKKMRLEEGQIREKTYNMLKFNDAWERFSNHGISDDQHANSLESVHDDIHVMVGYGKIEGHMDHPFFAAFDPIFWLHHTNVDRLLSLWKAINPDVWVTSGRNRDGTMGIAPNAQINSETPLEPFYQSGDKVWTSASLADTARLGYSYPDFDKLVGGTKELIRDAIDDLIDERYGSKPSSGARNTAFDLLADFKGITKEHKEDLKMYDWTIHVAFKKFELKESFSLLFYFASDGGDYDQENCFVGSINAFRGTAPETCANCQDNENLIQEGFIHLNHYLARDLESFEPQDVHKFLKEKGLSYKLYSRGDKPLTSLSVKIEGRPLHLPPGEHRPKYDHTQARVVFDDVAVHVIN
Experimental: (§1) Kinetic assay of catecholase and cresolase activities was carried out through depletion of MeBACat and MePAPh for 1 or 2 min with enzyme concentrations of 11.11 and 112.68 ug/mL at wavelenghts of 473 nm and 352 nm using a Cary spectrophotometer, 100 Biomodel with jacketed cell holders.

Polyphenol oxidase 2 [2] = target: T1, Polyphenol oxidase 2; test: Cresolase Activity Assay; conditions: pH 6.8; 20 °C
Experimental: as §1

CC(C)CCOC(=S)[S][Na] [Iso-pentyl xanthate, III]
Ki (Polyphenol oxidase 2 [1]): 42.2 µM
Ki (Polyphenol oxidase 2 [2]): 6.1 µM

CC(C)OC(=S)[S][Na] [Iso-propyl xanthate, I]
Ki (Polyphenol oxidase 2 [1]): 12.9 µM
Ki (Polyphenol oxidase 2 [2]): 9.8 µM

CC(C)COC(=S)[S][Na] [Iso-butyl xanthate, II]
Ki (Polyphenol oxidase 2 [1]): 21.8 µM
Ki (Polyphenol oxidase 2 [2]): 7.2 µM
